Assay results: patent publication US7770577B2, “Methods and devices for treating lung dysfunction” (priority 2001, dated 2010)
Read-outs that look alike come from different tables or passages of the source.

Experiments:
[1] = tested on: CF airway epithelial cell cultures; experiment: SCN− efflux in CF airway epithelial air-liquid interface cultures; assay type: cell-based, human; conditions: for effect on SCN^− efflux: CF cells
Method: (§1) J. Respir. […] Experiments comparing non-CF and CF cells were performed with cultures grown simultaneously and matched in passage number, the number of cells plated, and days in culture. […] To initiate experiments, apical surfaces of the cultures were rapidly washed three times with Dulbecco's PBS (50 μl for 6.5 mm filters or 500 μl for 24 mm filters) containing 100 μM amiloride. Following a third wash, additional aliquots were placed on the apical surface for sequential 2 min incubations at 37° C. in humidified 5% CO2.
(§2) Bronchial epithelial cells were obtained from either CF or non-CF lungs at the time of transplant or organ donation. Cells were passaged twice (thereby de-differentiated) and then cultured at an air-liquid interface for re-differentiation. […] J. Respir. […] Following three rapid PBS washes of the apical surface, additional PBS aliquots were placed on the apical surface for sequential 2 min incubations. […] Airway epithelial cell cultures from three separate CF patients were compared to three non-CF control cultures.

[2] = tested on: non-CF airway epithelial cell cultures; experiment: SCN− efflux / apical accumulation in non-CF airway epithelial air-liquid interface cultures; assay type: cell-based, human
Method: as §1, §2

[3] = tested on: Pseudomonas aeruginosa (ATCC 27853); experiment: Antibacterial assay of LPO system components in PBS pH 5.7 (control experiments); assay type: cell-based; conditions: 1.125 μg/ml LPO, 10^−5 M H2O2 or 5×10^−4 M SCN− added singly or in pairs
Method: (§3) Bacteria were collected in the stationary phase of growth and further diluted in LB broth to 5-6×10^4/ml. After adding glycerol to 15%, aliquots of bacteria were stored at −80° C.
(§4) Cultures of non-CF and CF airway epithelial cells were matched with regard to passage number, days in culture, and days at the air liquid interface. At least 24 h prior to the experiments, basolateral media of some cultures were supplemented with 100 μM KSCN. The apical surfaces of the cultures were washed with 0.25 ml PBS and the washes were pooled and stored at −20° C. […] Control experiments were performed using only PBS adjusted to pH 5.7. […] Mixtures were sampled immediately and 4 h after incubation at room temperature and CFU were determined by plating on LB Agar. Antibacterial activity was expressed as a ratio of CFU after 4 h to the starting CFU in the sample to control for slight differences in the starting number of bacteria.

P. aeruginosa [4] = tested on: P. aeruginosa
Method: as §3, §4

[5] = tested on: Pseudomonas aeruginosa (ATCC 27853); experiment: LPO-dependent antibacterial activity of human airway secretions; assay type: cell-based
Method: Human airway secretions were obtained from intubated patients undergoing ambulatory outpatient elective surgery according to IRB approved protocols. Patients were selected for not having respiratory disease. Saline (3 ml) was injected into the tracheal tube and immediately suctioned into a trap. Recovered secretions were spun at 16,000 rpm for 20 min. at 4° C. The supernatant was aliquoted and stored at −80° C. for later analysis. Undiluted secretions were obtained from acutely (<24 h) intubated patients in the medical ICU who were intubated for reasons other than respiratory disease. Selected patients had no clinical signs of respiratory infection. Secretions were cleared by centrifugation (100,000×g, 30 min), aliquoted, and stored at −80° C.
as §3, §4
It is unlikely that H2O2 would continue to be produced in secretions after collection since its source is thought to be cellular in origin. For this reason, secretions were supplemented with 10^−5 M H2O2.

human airway epithelia = experiment: Apical H2O2 production by airway epithelial ALI cultures (fluorometric horseradish peroxidase micro-assay); assay type: cell-based
Method: Reverse transcription-polymerase chain reaction (RT-PCR) was performed with primers designed to detect any mammalian NADPH oxidase capable of producing H2O2 through superoxide intermediate.
Since the predicted molecular structure of Duox1 and 2 identified an intracellular loop containing 2 EF-hand calcium-binding motifs, the Ca^2+ stimulated H2O2 production was assessed. ALI cultures were stimulated for one hour with Thapsigargin (1 μM), an inhibitor of the endoplasmic reticulum calcium ATPase pump that increases intracellular Ca^2+. […] In this assay, the cells were incubated for one hour with either DPI alone or in combination with thapsigargin (1 μM).

P. aeruginosa [6] = experiment: LPO dependent killing with bovine milk LPO at pH 5.7, 6.2 and 6.8; assay type: cell-based, Pseudomonas aeruginosa; conditions: dapsone 10^−3 M; salicyl hydroxamic acid 10^−4 M
Text: (§5) Concentrations of the LPO system components were selected to be within the measured ranges in human airways.

Burkholderia cepacia = experiment: as above; assay type: cell-based; conditions: dapsone 10^−3 M; salicyl hydroxamic acid 10^−4 M
Text: as §5

[7] = cited from earlier work
[8] = PBS pH 5.7, 4 h room temperature, H2O2 10^−5 M or dapsone 10^−3 M, mean±SE, n=6
[9] = long-term daily aerosol administration

Molecule: CCCC(=O)Nc1ncnc2c1ncn2[C@@H]1O[C@@H]2COP(=O)(O)O[C@H]2[C@H]1OC(=O)CCC [dibutryl cAMP]
- SCN^− efflux after stimulation of PKA ([1]; CF cultures, dibutryl cAMP (0.5 mM) and forskolin (10 μM) together): did not
- SCN^− efflux after stimulation of PKA ([2]; non-CF cultures, dibutryl cAMP (0.5 mM) and forskolin (10 μM) together): increase in efflux

Molecule: lactoperoxidase [LPO]
- growth of bacteria [3]: not affected

Molecule: OO [H2O2, hydrogen peroxide]
- growth of bacteria [3]: not affected
- antibacterial activity in culture washes (P. aeruginosa [4]; H2O2 10^−5 M alone or with LPO, washes from cells cultured without basolateral SCN−): did not alone or with LPO, give rise to any antibacterial activity
- cell growth (ratio of CFU after 4 h to starting CFU) [5, 8]: 1.9±0.3
- cell growth (ratio of CFU after 4 h to starting CFU) ([5]; bacteria in airway secretions of six patients in presence of 10^−5 M H2O2, n=6): 0.98±0.16

Molecule: N#CS [SCN^−, thiocyanate]
- growth of bacteria [3]: not affected
- antibacterial activity in culture washes (P. aeruginosa [4]; LPO/H2O2 supplemented washes from CF cultures grown with basolateral SCN− (100 μM)): no detectable LPO-dependent effect
- antibacterial activity in culture washes (P. aeruginosa [4]; LPO/H2O2 supplemented washes from non-CF cultures grown with basolateral SCN− (100 μM)): LPO-dependent killing of bacteria
- antibacterial activity in culture washes (P. aeruginosa [4]; exogenous SCN− (0.5 mM) added to CF culture washes): generated antibacterial activity
- antibacterial activity in culture washes (P. aeruginosa [4]; exogenous SCN− (0.5 mM) added to non-CF culture washes): increased the LPO dependent activity

Molecule: C/C=C(/C)C(=O)O[C@H]1C(C)=C2[C@H]([C@@H]1OC(=O)CCCCCCC)[C@@](C)(OC(C)=O)C[C@H](OC(=O)CCC)[C@@]1(O)[C@H]2OC(=O)[C@@]1(C)O [thapsigargin, Thapsigargin]
- apical H2O2 produced (human airway epithelia; ALI cultures stimulated one hour with thapsigargin 1 μM (baseline 59±16)): 128±17 H2O2 pmoles/hr

Molecule: Nc1ccc(S(=O)(=O)c2ccc(N)cc2)cc1 [dapsone]
- cell growth (ratio of CFU after 4 h to starting CFU) [5, 8]: 1.9±0.3
- cell growth (ratio of CFU after 4 h to starting CFU) ([5]; airway secretions with 10^−5 M H2O2 plus dapsone, n=6, p<0.05 vs no dapsone): 1.68±0.31
- effect of peroxidase inhibitor on LPO system antibacterial activity (P. aeruginosa [6]): inhibited
- effect of peroxidase inhibitor on LPO system antibacterial activity (Burkholderia cepacia): inhibited

Molecule: CC(C)Cc1ccc(C(C)C(=O)O)cc1 (stereo not drawn) [ibuprofen]
- rate of lung inflammation ([7]; children with CF, four-year study, high doses): reduced the rate of lung inflammation

Molecule: COc1ccc(Cl)cc1C(=O)NCCc1ccc(S(=O)(=O)NC(=O)NC2CCCCC2)cc1 [glibenclamide]
- effect on SCN^− efflux [1]: neither glibenclamide nor DIDS had any effect
- reversibility of inhibition of SCN^− efflux ([2]; non-CF cells): reversible
- block of PKA-stimulated and baseline SCN^− efflux ([2]; non-CF cells, glibenclamide 500 μM): blocked

Molecule: O=S(=O)(O)c1cc(N=C=S)ccc1C=Cc1ccc(N=C=S)cc1S(=O)(=O)O [DIDS, 4,4′-diisothiocyanostilbene-2,2′disulphonic acid]
- effect on SCN^− efflux [1]: neither glibenclamide nor DIDS had any effect

Molecule: c1ccc2c(c1)[I+]c1ccccc1-2 [DPI, Diphenyleneiodonium]
- apical H2O2 production (human airway epithelia; 1 μM DPI in combination with thapsigargin (1 μM), one hour): 45±19 H2O2 pmoles/hr

B1: Pulmozyme®: mucus-thinning drug, a DNAse (recombinant human deoxyribonuclease) (protein, UniProt P24855 23-282, looked up)
Deoxyribonuclease-1: LKIAAFNIQTFGETKMSNATLVSYIVQILSRYDIALVQEVRDSHLTAVGKLLDNLNQDAPDTYHYVVSEPLGRNSYKERYLFVYRPDQVSAVDSYYYDDGCEPCGNDTFNREPAIVRFFSRFTEVREFAIVPLHAAPGDAVAEIDALYDVYLDVQEKWGLEDVMLMGDFNAGCSYVRPSQWSSIRLWTSPTFQWLIPDSADTTATPTHCAYDRIVVAGMLLRGAVVPDSALPFNFQAAYGLSDQLAQAISDHYPVEVMLK
- lung function ([7]; clinical trials, people with CF): improved lung function
- number of respiratory infections ([7]; clinical trials): reduced the number of respiratory infections
- frequency of severe respiratory tract exacerbations [7, 9]: decrease the frequency of severe respiratory tract exacerbations
- rate of decline in pulmonary function [7, 9]: slow the rate of decline in pulmonary function
